Measured values: patent US9273092B2, “Selective binding compounds” (RIOGIN Corporation, priority 2011, dated 2016)

Molecular target: hSA (Homo sapiens, UniProt P02768)
Assay: hSA binding assay (hSA-coated microtiter plate, streptavidin-polyHRP/ABTS, OD 405 nm)
Details: for Bmax: given only for compounds with an Exp 2 value
Experimental: hSA binding assay. Microtiter 96 well plate is coated, overnight at 4° C., using […] of a solution of hSA in PBS ([…]). Plate is washed with PBS and blocked, for 1 hours, using 150 ml, per well, of a 10% solution of Tween 20 in water. After 1 hour the wells are washed with PBS. The hSA binders tested are dissolved in PBS, 100 ml of the tested solutions are then added in the well and incubated for 2 hours. After 2 hours, the solution are discarded and the wells are washed using PBS, 0.1% Tween 20. 100 ml of a solution of streptavidin-polyHRP in PBS 1.375% casein is added to the wells and incubated for 1 more hours. Finally wells are washed with PBS, 0.1% Tween 20, and 100 ml ABTS in phosphate-citrate buffer with sodium perborate is added. After a few minutes OD are read at 405 nm.
A plurality of compounds according to the invention were prepared. All of the compounds contained the Cys-Pro-Cys moiety. These compounds and an assay control were tested using the above procedure. Some compounds were tested twice (Exp 1 and Exp 2).

Sequence of hSA (P02768 25-609): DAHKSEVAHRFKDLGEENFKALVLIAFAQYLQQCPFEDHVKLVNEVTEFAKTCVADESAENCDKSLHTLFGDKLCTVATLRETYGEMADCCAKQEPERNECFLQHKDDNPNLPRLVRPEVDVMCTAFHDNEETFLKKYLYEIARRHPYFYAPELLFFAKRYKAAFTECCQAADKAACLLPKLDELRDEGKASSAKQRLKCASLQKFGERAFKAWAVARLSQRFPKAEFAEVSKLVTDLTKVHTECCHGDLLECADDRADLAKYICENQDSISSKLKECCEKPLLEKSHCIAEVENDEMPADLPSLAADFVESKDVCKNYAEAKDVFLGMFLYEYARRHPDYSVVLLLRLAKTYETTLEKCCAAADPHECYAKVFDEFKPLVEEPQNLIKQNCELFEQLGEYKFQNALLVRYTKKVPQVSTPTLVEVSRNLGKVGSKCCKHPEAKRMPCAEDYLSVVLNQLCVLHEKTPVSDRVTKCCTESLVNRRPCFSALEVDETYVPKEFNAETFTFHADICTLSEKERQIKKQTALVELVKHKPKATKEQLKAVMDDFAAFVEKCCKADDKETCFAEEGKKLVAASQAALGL

Sequence	Binding, Exp 2	Bmax	Binding, Exp 1
KEIEDICPCLW [Compound 93, KEIEDI-LW, "-" represents cysteine-proline-cysteine]	0.257	1.425	
KFIEDICPCLW [Compound 13, KFIEDI-LW, "-" represents cysteine-proline-cysteine]	0.4961	1.198	0.04979
KIIEDICPCLW [Compound 62, KIIEDI-LW, "-" represents cysteine-proline-cysteine]	0.2342	0.8075	1.415
KLFEDICPCLW [Compound 33, KLFEDI-LW, "-" represents cysteine-proline-cysteine]			0.1213
KLIADICPCLW [Compound 46, KLIADI-LW, "-" represents cysteine-proline-cysteine]	0.1074	1.077	0.2126
KLIDDICPCLW [Compound 34, KLIDDI-LW, "-" represents cysteine-proline-cysteine]			0.1237
KLIEDACPCLW [Compound 39, KLIEDA-LW, "-" represents cysteine-proline-cysteine]			0.153
KLIEDECPCLW [Compound 11, KLIEDE-LW, "-" represents cysteine-proline-cysteine]			0.04808
KLIEDFCPCLW [Compound 44, KLIEDF-LW, "-" represents cysteine-proline-cysteine]			0.1836
KLIEDICPCAW [Compound 25, KLIEDI-AW, "-" represents cysteine-proline-cysteine]			0.08281
KLIEDICPCFW [Compound 30, KLIEDI-FW, "-" represents cysteine-proline-cysteine]			0.1033
KLIEDICPCLE [Compound 49, KLIEDI-LE, "-" represents cysteine-proline-cysteine]			0.2709
KLIEDICPCLH [Compound 23, KLIEDI-LH, "-" represents cysteine-proline-cysteine]			0.07161
KLIEDICPCLK [Compound 21, KLIEDI-LK, "-" represents cysteine-proline-cysteine]			0.06947
KLIEDICPCLQ [Compound 42, KLIEDI-LQ, "-" represents cysteine-proline-cysteine]			0.1651
KLIEDICPCLW [Compound 26, KLIEDI-LW, "-" represents cysteine-proline-cysteine]			0.08742
KLIEDICPCQW [Compound 48, KLIEDI-QW, "-" represents cysteine-proline-cysteine]			0.2445
KLIEDICPCTW [Compound 35, KLIEDI-TW, "-" represents cysteine-proline-cysteine]			0.1327
KLIEDICPCVW [Compound 15, KLIEDI-VW, "-" represents cysteine-proline-cysteine]			0.05545
KLIEDQCPCLW [Compound 55, KLIEDQ-LW, "-" represents cysteine-proline-cysteine]			0.5209
KLIEDVCPCLW [Compound 56, KLIEDV-LW, "-" represents cysteine-proline-cysteine]			0.5311
KLIEEICPCLW [Compound 28, KLIEEI-LW, "-" represents cysteine-proline-cysteine]			0.09642
KLIEVICPCLW [Compound 5, KLIEVI-LW, "-" represents cysteine-proline-cysteine]			0.03868
KLIEYICPCLW [Compound 53, KLIEYI-LW, "-" represents cysteine-proline-cysteine]			0.3109
KLIQDICPCLW [Compound 51, KLIQDI-LW, "-" represents cysteine-proline-cysteine]	0.1771	1.048	0.3066

Sequence	Binding, Exp 2	Bmax	Binding, Exp 1
KLISDICPCLW [Compound 3, KLISDI-LW, "-" represents cysteine-proline-cysteine]			0.02504
KLIVDICPCLW [Compound 95, KLIVDI-LW, "-" represents cysteine-proline-cysteine]	0.1395	1.19	
KLIYDICPCLW [Compound 29, KLIYDI-LW, "-" represents cysteine-proline-cysteine]	0.09262	0.7912	0.1014
KLLEDICPCLW [Compound 9, KLLEDI-LW, "-" represents cysteine-proline-cysteine]			0.04197
KLQEDICPCLW [Compound 31, KLQEDI-LW, "-" represents cysteine-proline-cysteine]			0.1033
KLTEDICPCLW [Compound 24, KLTEDI-LW, "-" represents cysteine-proline-cysteine]			0.07352
KLVEDICPCLW [Compound 41, KLVEDI-LW, "-" represents cysteine-proline-cysteine]			0.1635
KQIEDICPCLW [Compound 47, KQIEDI-LW, "-" represents cysteine-proline-cysteine]	0.581	1.4	0.2411
KTIEDICPCLW [Compound 22, KTIEDI-LW, "-" represents cysteine-proline-cysteine]	0.1476	1.427	0.06947
KVIEDICPCLW [Compound 64, KVIEDI-LW, "-" represents cysteine-proline-cysteine]	0.1137	0.3906	2.575
LKIKDICPCLW [Compound 94, LKIKDI-LW, "-" represents cysteine-proline-cysteine]	0.2987	1.253	
REIEDICPCLW [Compound 96, REIEDI-LW, "-" represents cysteine-proline-cysteine]	0.2479	0.8746	
RFIEDICPCLW [Compound 8, RFIEDI-LW, "-" represents cysteine-proline-cysteine]	0.1971	1.136	0.04142
RIIEDICPCLW [Compound 40, RIIEDI-LW, "-" represents cysteine-proline-cysteine]	0.1166	0.6826	0.1632
RLEEDICPCLW [Compound 17, RLEEDI-LW, "-" represents cysteine-proline-cysteine]			0.0625
RLIADICPCLW [Compound 4, RLIADI-LW, "-" represents cysteine-proline-cysteine]	0.1216	1.036	0.03473
RLIDDICPCLW [Compound 6, RLIDDI-LW, "-" represents cysteine-proline-cysteine]	0.2179	1.256	0.03897
RLIEDACPCLW [Compound 38, RLIEDA-LW, "-" represents cysteine-proline-cysteine]			0.1522
RLIEDECPCLW [Compound 58, RLIEDE-LW, "-" represents cysteine-proline-cysteine]			0.8196
RLIEDICPCAW [Compound 59, RLIEDI-AW, "-" represents cysteine-proline-cysteine]			1.031
RLIEDICPCFW [Compound 10, RLIEDI-FW, "-" represents cysteine-proline-cysteine]			0.04544
RLIEDICPCLH [Compound 63, RLIEDI-LH, "-" represents cysteine-proline-cysteine]			1.877
RLIEDICPCLK [Compound 66, RLIEDI-LK, "-" represents cysteine-proline-cysteine]			6.227
RLIEDICPCLQ [Compound 65, RLIEDI-LQ, "-" represents cysteine-proline-cysteine]			5.789
RLIEDICPCLV [Compound 43, RLIEDI-LV, "-" represents cysteine-proline-cysteine]			0.1701
